Assay [1] deals with hemorrhagic shock. Kind of assay: Enteroclysis with digestive protease blockade in porcine hemorrhagic shock. The class given is in vivo, pigs. On the procedure:
The inventors examined the utility of intestinal lavage in a porcine model of hemorrhagic shock. An objective of this study was to determine the effect of digestive protease blockade in the lumen of the intestine during hemorrhagic shock. The animals (16 pigs) were subjected to a shock that mimics clinical events. Pigs were bled 30 ml/kg over 30 minutes and maintained at a mean arterial pressure of 30 mmHg for 60 minutes and shed blood was then used to maintain a pressure of 45 mmHg for three hours.

Assay [2] relates to pancreatic digestive enzymes. Briefly: Enzyme inhibitors administered directly into the circulation (i.v., i.a., i.m.) in shock. Conditions: administered directly into the circulation (i.v., i.a., i.m.) instead of the lumen of the intestine. In kind it is in vivo. On the procedure: From a mechanistic point of view, an important feature is the fact that the significant protection rendered by the inhibition of pancreatic digestive enzymes is only provided if the enzymes are blocked inside the lumen of the intestine. […] This observation supports the hypothesis that digestive enzymes in the lumen of the intestine—where they are fully activated and in high concentrations—are the major enzymes in acute intestinal ischemia. They produce inflammatory mediators that are carried towards the central circulation via the portal venous system, but also via the intestinal lymphatics.

Assay [3] concerns Hemorrhagic Shock. Briefly: Long-term survival, hemorrhagic shock with intra-intestinal enzyme blockade. The class given is in vivo, rat. The settings on record: ANGD 0.37 mM, 15 ml into intestinal lumen at 1 hour after hypotension; two weeks observation; P < 0.01. The procedure:
(§1) A study of the long term survival after blockade of digestive enzymes provided further support to the findings. In preparation for this application the inventors carried out pilot studies in the rat with (a) hemorrhagic, (b) endotoxic and (c) cecal ligation shock, followed by an observation period for two weeks until normal cage activities were recorded in survivors. Without food restriction, in hemorrhagic shock the mean blood pressure was reduced for two hours to 35 mmHg followed by return of all blood volume but no further resuscitation. The digestive enzymes were blocked at 1 hour after hypotension by direct infusion of ANGD (0.37 mM, 15 ml) into the intestinal lumen after a temporary exposure via a midline incision. In endotoxic shock, the rats received gram-negative endotoxin (5 mg/kg, i.v.); the digestive enzymes were blocked in the same way at 1 hour after endotoxin administration. No other agent was administered. In cecal ligation shock both the digestive enzymes in the lumen of the intestine as well as inside the peritoneum were blocked with ANGD. […] In contrast to untreated controls, all treated survivors returned after anesthesia within hours to normal activity (walking, climbing, grooming, drinking, eating, bowel movements) and within 3 days to normal weight gain. […]

The test system of assay [4] is Endotoxic Shock. Kind of assay: Long-term survival, endotoxic shock with intra-intestinal enzyme blockade. The class given is in vivo, rat. The settings on record: endotoxin 5 mg/kg i.v.; blockade at 1 hour; two weeks observation; P < 0.004. On the procedure:
as §1

Assay [5] concerns Cecal Lig. Shock. Briefly: Long-term survival, cecal ligation shock with blockade in intestinal lumen and peritoneum. The settings on record: for survival rate (survivors/treated): alternative serine protease inhibitors. The class given is in vivo, rat. On the procedure: (§2) A study of the long term survival after blockade of digestive enzymes provided further support to the findings. In preparation for this application the inventors carried out pilot studies in the rat with (a) hemorrhagic, (b) endotoxic and (c) cecal ligation shock, followed by an observation period for two weeks until normal cage activities were recorded in survivors. Without food restriction, in hemorrhagic shock the mean blood pressure was reduced for two hours to 35 mmHg followed by return of all blood volume but no further resuscitation. The digestive enzymes were blocked at 1 hour after hypotension by direct infusion of ANGD (0.37 mM, 15 ml) into the intestinal lumen after a temporary exposure via a midline incision. In endotoxic shock, the rats received gram-negative endotoxin (5 mg/kg, i.v.); the digestive enzymes were blocked in the same way at 1 hour after endotoxin administration. No other agent was administered. In cecal ligation shock both the digestive enzymes in the lumen of the intestine as well as inside the peritoneum were blocked with ANGD. […] In contrast to untreated controls, all treated survivors returned after anesthesia within hours to normal activity (walking, climbing, grooming, drinking, eating, bowel movements) and within 3 days to normal weight gain. Furthermore, treatment with alternative serine protease inhibitors (CYCLOKAPRON, tranexamic acid; TRASYLOL, aprotinin) in cecal ligation shock gave significant survival rates (5/5 rats, P<0.0079; 4/5 rats, P<0.02, respectively).

Assay [6] concerns hemorrhagic, endotoxic and cecal ligation shock. Briefly: Long-term survival pilot studies, observations stated for all three shock models together. In kind it is in vivo, rat. On the procedure:
as §2

The subject of assay [7] is plasma enzymatic activity (cleavage of the extracellular domain of the insulin receptor). Briefly: Shock plasma protease activity cleaving the insulin receptor extracellular domain on donor cells. The class given is cell-based. Conditions: plasma of rats in hemorrhagic shock collected at 4 hours; results not shown. On the procedure:
It was further shown that plasma of shock rats has protease activity and causes cleavage of the extracellular domain of the insulin receptor, E-cadherin, and CAT-1. In all forms of shock there is consistently proteolytic activity in plasma. Therefore the inventors investigated the ability of central venous plasma of rats in hemorrhagic shock (collected at 4 hours) to cleave the extracellular domain of the insulin receptor a by using an antibody against the extracellular binding domain of insulin combined with membrane receptor density measurements. Exposure of normal donor cells to plasma from shock rats, but not to plasma of control rats, causes extensive cleavage of the insulin binding domain. Furthermore, this cleavage causes also a reduction of the glucose transport into the cell cytoplasm. […] There is also a significant cleavage of the extracellular domain of the tight junction protein E-cadherin in intestinal epithelium and CAT-1 in leukocytes.

Assay [8] has as its system hemorrhagic shock. Kind of assay: Survival of lab rodents in hemorrhagic shock given basic shock care with or without inhibitor. The class given is in vivo. The settings on record: 10 of 19 rodents treated; one of nine untreated survived. The source says:
The researchers then began animal studies. The present invention is based on the latest research using rodent models of human hemorrhagic shock. Here it has been discovered that the sudden lowering of blood pressure that occurs in people suffering from […] can provoke the body's digestive enzymes to break down the body's own intestinal tissue as if it were food. Such enzymes' abnormal actions may be defined as “auto-digestion.” Auto-digestion is dangerous because not only does it injure healthy tissue but also contributes to multi-organ failure, which can be fatal.
The healthy cells of the animals' intestinal tissue react to auto-digestion by releasing a slew of substances that can be toxic to the heart and other body organs. These substances, termed cytotoxic mediators, can reach these body organs via the blood stream. In their latest studies, shock was induced in 19 lab rodents, all of which were then treated with therapies that mirror the emergency room care given to many human patients who suffer shock, which typically occurs when blood flow to the heart, lungs and other body organs is slowed as a result of trauma, dehydration, heart attack or stroke.
A total of 10 of the 19 lab rodents in shock were also treated with the experimental digestive enzyme inhibitor called ANGD. […] However, only one of the nine “untreated” animals in shock survived. […]

The test system of assay [9] is cytotoxic factors (free fatty acids) of intestinal homogenates. Briefly: Cell death caused by rat small intestine homogenates. In kind it is cell-based. The settings on record: homogenization of intestinal wall in the presence of the inhibitor. The text has this:
Breakdown of free fatty acid binding proteins by proteases causes release of free fatty acids to act as powerful cytotoxic mediators.

The subject of assay [10] is superior mesenteric artery occlusion (SMAO)-induced shock. Kind of assay: Delayed intestinal lavage with protease inhibitor during reperfusion after SMAO. The class given is in vivo, Male Wistar rats. The source says:
In one series of experiments, the inventors discovered that delayed inhibition of digestive enzymes in the lumen of the intestine reduces inflammatory markers after shock. As a clinically relevant situation, the inventors examined the effectiveness of a delayed intestinal protease inhibition during reperfusion after SMAO. […] Intestinal ischemia-induced endotoxemia was prevented by digestive enzyme inhibition.
In summary, delayed intestinal protease inhibition serves to improve experimental SMAO-induced shock by reducing intestinal injury, the level of cell activation in plasma and in the microcirculation, and by restoring the blood pressure.

The subject of assay [11] is intestinal ischemia-induced shock. Kind of assay: Intra-intestinal pancreatic protease inhibition in intestinal ischemia and reperfusion (SMAO). In kind it is in vivo. The source says: These experiments were designed to examine whether inflammatory mediators generated in the intestine by digestive enzymes are released early into the circulation and may contribute to the severe systemic inflammatory response syndrome during shock, a condition that involves the microcirculation in peripheral organs. Intestinal ischemia and reperfusion-induced hypotension upon reperfusion was accompanied by a significant increase in the level of neutrophil activating factors in the intestine and plasma. During reperfusion a significant increase in leukocyte-endothelium interactions in post-capillary venules and parenchymal cell death are observed in the cremaster muscle in controls after SMAO. […] In addition, ischemia-induced intestinal mucosal injury is attenuated with intestinal pancreatic protease inhibition.

In assay [12] the test system is septic shock with a lethal dose of endotoxin. Kind of assay: Intra-luminal lavage after lethal dose of endotoxin (septic shock). In kind it is in vivo, rat. The settings on record: endotoxin 4 mg/kg i.v. The source says: Sepsis is accompanied by severe inflammation whose mechanism remains uncertain. The inventors examined the possibility that pancreatic digestive enzymes may also be involved in inflammation in an experimental form of septic shock with a lethal dose of endotoxin in the rat. Immediately after intravenous endotoxin administration, the small intestine was subjected to intra-luminal lavage with and without an inhibitor of pancreatic digestive proteases (FOY, gabexate mesilate). After endotoxin administration (4 mg/kg, gram-negative), control rats developed hypotension, tachycardia, hyperventilation and leukopenia. The intestine and plasma contained mediators that activated leukocytes. The leukocyte-endothelial interaction within the cremaster muscle microcirculation was enhanced. […] These experiments indicate that inflammatory mediators derived from the intestine by digestive proteases may be involved in the prolonged inflammatory response and may sustain symptoms of sepsis after an endotoxin challenge. A bolus administration of endotoxin causes a transient inflammation response and elevated intestinal permeability. But the sustained inflammation that leads to multi-organ failure in this situation is caused by auto-digestion due to escape of pancreatic digestive enzymes from the lumen of the intestine due to the elevated mucosal permeability.

Assay [13] has as its system septic shock. Conditions: FDA approved treatment; more recent trials could not confirm the effectiveness; cited from earlier work.
The mark [14] stands for this setting: 100 ml/kg of 0.37 mM in GOLYTELY via duodenal catheter.
The mark [15] stands for this setting: blockade in lumen of intestine and peritoneum, two weeks observation, P < 0.001.
The mark [16] stands for this setting: FOY 0.37 mM, delayed lavage at 40 min after reperfusion.

For the molecule `N=C(N)c1ccc2cc(OC(=O)c3ccc(N=C(N)N)cc3)ccc2c1` [ANGD, 6-amidino-2-naphthyl p-guanidobenzoate dimethane-sulfate], in assay [1] (setting [14]), the “protease activity in the intestinal lumen and in plasma throughout the experiment” value is “persistent suppression”; the “protein and protease levels in the duodenum during enteroclysis” value is “significant reductions”. In assay [1] (p=0.04), the “leukocyte infiltration into the lung” value is recorded as “lower in treated than control animals”. For the same molecule, the “liver and small intestine injury” value in assay [1] (pig, in vivo) is reported as “less injury”. For the same molecule, the “transfusion requirement of shed blood” value in assay [1] (versus 30±0.43 ml/kg in controls, p=0.002) is 18.1 ± 4.5 mL/kg. Moreover, the “level of neutrophil activation after resuscitation” value in assay [1] (versus 46.9±4.5% in controls, p=0.0002) is 31.1±3.3%. In assay [2], the “protection against inflammation in shock” value is “less, and in some cases no protection”. In assay [3], the Non-Survivor is 2 number of rats and the Survivor is on record as 10 number of rats. Also, in assay [4], the Non-Survivor is 1 number of rats and the Survivor is reported as 10 number of rats. In assay [5] (setting [15]), the Non-Survivor is on record as 1 number of rats and the Survivor is listed as 9 number of rats. Also, the “survival rate versus untreated controls” value in assay [6] (in each shock model) is “significantly enhanced survival rate”. In assay [6] (rat, in vivo), the “return of treated survivors to normal weight gain” value is listed as at most 3 days. Besides, in assay [6] (walking, climbing, grooming, drinking, eating, bowel movements), the “return of treated survivors to normal activity after anesthesia” value is on record as “within hours”. In addition, the “block of plasma enzymatic activity” value in assay [7] is on record as “more than 50%”. In assay [8], the “survival (survivors of treated animals)” value is listed as “Eight of the ten”.
On to `CCCCCCCCCCC[C@@H](C[C@@H]1OC(=O)[C@H]1CCCCCC)OC(=O)[C@H](CC(C)C)NC=O` [orlistat], for which, in assay [9], the “cell death after protease digestion” value was “prevented cell death”.
`NC[C@H]1CC[C@H](C(=O)O)CC1` [CYCLOKAPRON, tranexamic acid]: the “survival rate (survivors/treated)” value in [5] is given as 5/5.
Regarding `CCOC(=O)c1ccc(OC(=O)CCCCCN=C(N)N)cc1.CS(=O)(=O)O` [FOY, gabexate mesilate], in [10] (setting [16]), the “formation of intestine-derived leukocyte activation factors” value is “decreased formation” and the intestinal injury entry was “decreased”. Moreover, in assay [10] (FOY 0.37 mM, delayed lavage at 40 min after reperfusion, SMAO 100 min), the blood pressure result is on record as “highly significant restoration of the initial blood pressure before shock”. Also, the “leukocytes adhesion in post-capillary venules” value in [10] (cremaster muscle microcirculation) is “lower leukocytes adhesion”. In addition, in assay [10] (rat, in vivo), the “cell death in the cremaster muscle microcirculation” value was “reduced cell death” and the intestinal ischemia-induced endotoxemia result was “prevented”. Also, in assay [11] (cremaster muscle), the “leukocyte-endothelial interactions (rolling and firm adhesion to the endothelium)” value was “almost completely abolished”. For the same molecule, in assay [11] (in vivo), the “cell death (propidium iodine labeling) in the cremaster muscle” value is given as “almost completely abolished” and the “ischemia-induced intestinal mucosal injury” value was “attenuated”. In assay [11] (intra-intestinal, 0.37 mM), the blood pressure entry was “stable blood pressure throughout the experiment” and the cell activation entry is reported as “almost completely abolished”. Besides, in assay [12], the “cell injury in peripheral skeletal muscle microcirculation” value was “reduces” and the “indices of inflammation in plasma” value was “reduces all indices”. The hemodynamic parameters entry in assay [12] (intra-luminal lavage immediately after) is listed as “significantly improved”.
Turning to aprotinin [TRASYLOL], in assay [2], the “protection against inflammation in shock” value is “less, and in some cases no protection”. The “survival rate (survivors/treated)” value in assay [5] is reported as 4/5.
On to drotrecogin alfa (activated) [XIGRIS], for which the survival benefit entry in assay [13] is reported as “minor but confirmed survival benefit”.
